For orientation: pIC50 means −log10 of the IC50, conventionally taken in molar units. A higher pIC50 goes with a small IC50.

pIC50: −log10 of the molar value. A value given as a limit tells only on which side of the number the result lay.

One assay has as its target KAT-5 (Homo sapiens (Human), UniProt Q92993). Briefly: KAT-5 biochemical inhibition assay (SAMDI mass spectrometry). In short, it runs like this:
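Acetylation of 1 μM peptide by 9 nM enzyme with 0.5 μM acetyl-CoA (final) was run 90 min at 25° C in Tris pH 8.0 buffer with DTT, after compound preincubation at 2% DMSO. Formic acid stopped the reaction, and product was quantified by SAMDI mass spectrometry to derive IC50.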

The next assay concerns the target KAT-6A (Homo sapiens (Human), UniProt Q92794). As to the kind of experiment: KAT-6A biochemical inhibition assay (SAMDI mass spectrometry). In short, it runs like this: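 IC50 values came from SAMDI time-of-flight mass spectrometry after formic acid quench (0.5% final). Acetylation ran 90 min at 25 °C with 1 μM acetyl coenzyme A and 1 μM peptide substrate, following compound pre-incubation with 12.5 nM KAT-6A in Tris buffer pH 8.0 containing DTT, 2% DMSO final.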

A further assay deals with KAT-8 (Homo sapiens (Human), UniProt Q9H7Z6). Briefly: KAT-8 biochemical inhibition assay (SAMDI mass spectrometry). A digest of the protocol: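 Acetylation of 1 μM peptide substrate with 5 μM acetyl-CoA by 12.5 nM enzyme, compound pre-incubated, 2% DMSO, Tris pH 8.0 buffer with DTT, 25 °C for 90 min. Quench with 0.5% formic acid; product read by SAMDI mass spectrometry to give IC50.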
Chain of KAT-8 (Q9H7Z6 other isoform, or with tags, fused parts or gaps): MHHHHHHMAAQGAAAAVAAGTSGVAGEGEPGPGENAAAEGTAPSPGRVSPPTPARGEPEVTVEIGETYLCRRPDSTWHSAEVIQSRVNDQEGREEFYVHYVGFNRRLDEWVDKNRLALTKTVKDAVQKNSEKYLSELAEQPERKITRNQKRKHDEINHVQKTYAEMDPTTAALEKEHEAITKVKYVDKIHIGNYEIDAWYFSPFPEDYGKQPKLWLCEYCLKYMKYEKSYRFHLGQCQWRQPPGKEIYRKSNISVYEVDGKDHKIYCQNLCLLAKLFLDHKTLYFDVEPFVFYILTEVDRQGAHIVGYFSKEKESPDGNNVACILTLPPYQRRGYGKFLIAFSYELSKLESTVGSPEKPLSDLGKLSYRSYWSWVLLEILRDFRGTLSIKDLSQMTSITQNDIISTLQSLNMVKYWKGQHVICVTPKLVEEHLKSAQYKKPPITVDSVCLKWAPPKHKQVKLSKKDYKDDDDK

In a further assay the target is KAT-7 (Homo sapiens (Human), UniProt O95251). As to the kind of experiment: KAT-7 biochemical inhibition assay (SAMDI mass spectrometry). A digest of the protocol:
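Read-out was SAMDI time-of-flight MS of formic acid-quenched reactions (0.5% final). Compound dilutions (2% DMSO final) were pre-incubated with 6 nM KAT-7 in 50 mM Tris pH 8.0 with 1 mM DTT, then given 1 μM peptide substrate and 2 μM acetyl-CoA for 120 min at 25 °C. IC50 values were derived.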

Chain of KAT-7 (O95251 other isoform, or with tags, fused parts or gaps): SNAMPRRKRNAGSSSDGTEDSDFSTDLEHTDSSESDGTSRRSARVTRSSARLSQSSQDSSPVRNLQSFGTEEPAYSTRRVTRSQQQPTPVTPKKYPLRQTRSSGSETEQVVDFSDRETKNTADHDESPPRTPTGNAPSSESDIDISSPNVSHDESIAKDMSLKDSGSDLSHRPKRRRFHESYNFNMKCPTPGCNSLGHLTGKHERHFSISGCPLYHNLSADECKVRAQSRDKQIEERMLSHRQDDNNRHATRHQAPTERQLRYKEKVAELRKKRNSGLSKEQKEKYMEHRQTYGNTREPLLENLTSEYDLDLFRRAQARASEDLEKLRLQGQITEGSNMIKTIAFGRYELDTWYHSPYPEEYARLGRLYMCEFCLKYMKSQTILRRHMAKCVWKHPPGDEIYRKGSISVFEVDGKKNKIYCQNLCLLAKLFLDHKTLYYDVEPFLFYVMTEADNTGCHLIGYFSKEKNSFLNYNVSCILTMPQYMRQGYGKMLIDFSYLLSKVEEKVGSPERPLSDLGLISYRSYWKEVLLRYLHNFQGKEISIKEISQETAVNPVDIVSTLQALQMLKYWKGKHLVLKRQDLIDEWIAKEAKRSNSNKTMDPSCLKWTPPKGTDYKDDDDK
Chain of KAT-6A (Q92794 other isoform, or with tags, fused parts or gaps): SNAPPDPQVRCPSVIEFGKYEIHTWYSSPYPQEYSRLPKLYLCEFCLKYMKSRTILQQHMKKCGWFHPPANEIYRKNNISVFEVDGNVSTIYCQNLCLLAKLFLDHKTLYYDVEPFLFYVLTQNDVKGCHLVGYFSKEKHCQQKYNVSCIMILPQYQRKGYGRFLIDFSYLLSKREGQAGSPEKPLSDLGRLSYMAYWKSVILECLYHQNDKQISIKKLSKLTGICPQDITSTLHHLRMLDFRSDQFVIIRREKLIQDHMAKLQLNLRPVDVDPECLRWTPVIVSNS
Chain of KAT-5 (Q92993 other isoform, or with tags, fused parts or gaps): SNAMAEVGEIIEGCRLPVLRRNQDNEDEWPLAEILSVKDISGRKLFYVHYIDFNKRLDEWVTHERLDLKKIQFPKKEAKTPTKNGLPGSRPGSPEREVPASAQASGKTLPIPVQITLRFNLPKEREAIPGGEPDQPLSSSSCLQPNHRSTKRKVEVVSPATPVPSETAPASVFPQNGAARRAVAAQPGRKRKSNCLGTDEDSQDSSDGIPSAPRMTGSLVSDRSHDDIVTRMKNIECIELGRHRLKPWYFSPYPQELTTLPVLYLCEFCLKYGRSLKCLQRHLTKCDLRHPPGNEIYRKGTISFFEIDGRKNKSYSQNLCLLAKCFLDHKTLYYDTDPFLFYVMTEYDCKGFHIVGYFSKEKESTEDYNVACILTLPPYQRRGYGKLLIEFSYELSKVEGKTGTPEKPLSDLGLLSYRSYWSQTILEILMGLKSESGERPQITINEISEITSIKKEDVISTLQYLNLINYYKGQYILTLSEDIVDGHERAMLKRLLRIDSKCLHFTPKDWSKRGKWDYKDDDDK

As to `COc1ccc(CNC(=O)N2CCCC(CS(=O)(=O)NNC(=O)c3cc(-c4cn(C)cn4)cc(Cl)c3F)C2)cc1` (stereo not drawn) [Compound I-214], the negative-log IC50 (pIC50) on KAT-5 was greater than 5.00; against KAT-6A, greater than 5.00; on KAT-8, 4.30 to 5.00; against KAT-7, greater than 5.00.

Turning to `Cn1cnc(-c2cc(Cl)c(F)c(C(=O)NNS(=O)(=O)CC3CCCN(C(N)=O)C3)c2)c1` (stereo not drawn) [Compound I-215], the pIC50 was greater than 5.00 against KAT-5, greater than 5.00 at KAT-6A, 4.30 to 5.00 on KAT-8 and greater than 5.00 at KAT-7.

As to `COCCN(Cc1ccc(OC)cc1)C(=O)N1CCCC(CS(=O)(=O)NNC(=O)c2cc(-c3cn(C)cn3)cc(Cl)c2F)C1` (stereo not drawn) [Compound I-216], the negative logarithm of the IC50 (pIC50) is greater than 5.00 on KAT-5, 4.30 to 5.00 on KAT-6A, 4.30 to 5.00 on KAT-8 and greater than 5.00 against KAT-7.

Take `COCCNC(=O)N1CCCC(CS(=O)(=O)NNC(=O)c2cc(-c3cn(C)cn3)cc(Cl)c2F)C1` (stereo not drawn) [Compound I-217]: the negative logarithm of the IC50 (pIC50) against KAT-5 is greater than 5.00; against KAT-6A, greater than 5.00; against KAT-8, 4.30 to 5.00; at KAT-7, greater than 5.00.

Regarding `Cn1cnc(-c2cc(Cl)c(F)c(C(=O)NNS(=O)(=O)CC3CCCC(NC(=O)C4CCC4)C3)c2)c1` (stereo not drawn) [Compound I-218], the pIC50 is greater than 5.00 on KAT-5, greater than 5.00 against KAT-6A, 4.30 to 5.00 on KAT-8 and greater than 5.00 against KAT-7.

Take `O=C(NNS(=O)(=O)CC1CCCCC1)c1cc(-c2cn(Cc3ncco3)cn2)cc(Cl)c1F` [Compound I-219]: the pIC50 against KAT-5 is greater than 5.00; at KAT-6A, greater than 5.00; at KAT-8, 4.30 to 5.00; at KAT-7, greater than 5.00.

On to `Cn1cnc(-c2cc(Cl)c(F)c(C(=O)NNS(=O)(=O)CC3CN(S(C)(=O)=O)C3)c2)c1` [Compound I-220], for which the negative-log IC50 (pIC50) was 4.30 to 5.00 at KAT-5, 4.30 to 5.00 on KAT-6A, 4.30 to 5.00 at KAT-8 and greater than 5.00 against KAT-7.

Take `CCC(=O)N[C@H]1CC[C@@H](CS(=O)(=O)NNC(=O)c2cc(-c3cn(C)cn3)cc(Cl)c2F)CC1` [Compound I-221]: the negative logarithm of the IC50 (pIC50) on KAT-5 is greater than 5.00; against KAT-6A, greater than 5.00; at KAT-8, 4.30 to 5.00; on KAT-7, greater than 5.00.

For `CC(C)C(=O)N[C@H]1CC[C@@H](CS(=O)(=O)NNC(=O)c2cc(-c3cn(C)cn3)cc(Cl)c2F)CC1` [Compound I-222], the pIC50 on KAT-5 was greater than 5.00; on KAT-6A it was 4.30 to 5.00; at KAT-8, 4.30 to 5.00; on KAT-7 it was greater than 5.00.

For `CN1CC(CS(=O)(=O)NNC(=O)c2cc(-c3cn(C)cn3)cc(Cl)c2F)CC1=O` (stereo not drawn) [Compound I-224], the negative logarithm of the IC50 (pIC50) is 4.30 to 5.00 against KAT-5, 4.30 to 5.00 at KAT-6A, 4.30 to 5.00 against KAT-8 and greater than 5.00 at KAT-7.

As for `Cn1cnc(-c2cc(Cl)c(F)c(C(=O)NNS(=O)(=O)CC3CCCN(C(=O)NCCO)C3)c2)c1` (stereo not drawn) [Compound I-225], the pIC50 at KAT-5 was greater than 5.00; at KAT-6A, greater than 5.00; against KAT-8, 4.30 to 5.00; at KAT-7 it was greater than 5.00.

Take `COCc1nc(-c2cc(Cl)c(F)c(C(=O)NNS(=O)(=O)CC3CCCCC3)c2)cn1C` [Compound I-226]: the pIC50 against KAT-5 is greater than 5.00; on KAT-6A it was 4.30 to 5.00; against KAT-8, 4.30 to 5.00; on KAT-7 it was greater than 5.00.

With `Cn1cnc(-c2cc(Cl)c(F)c(C(=O)NNS(=O)(=O)c3nccs3)c2)c1` [Compound I-227], the negative logarithm of the IC50 (pIC50) at KAT-5 was greater than 5.00; against KAT-6A, greater than 5.00; against KAT-8 it was 4.30 to 5.00; against KAT-7 it was greater than 5.00.

With `Cn1cnc(-c2cc(Cl)c(F)c(C(=O)NNS(=O)(=O)CC3CCN(C(=O)NCCO)C3)c2)c1` (stereo not drawn) [Compound I-228], the pIC50 on KAT-5 is greater than 5.00; at KAT-6A, 4.30 to 5.00; against KAT-8, 4.30 to 5.00; at KAT-7, greater than 5.00.

Take `Cn1cnc(-c2cc(Cl)c(F)c(C(=O)NNS(=O)(=O)C[C@H]3CC[C@H](NC(=O)Cc4ccccc4)CC3)c2)c1` [Compound I-229]: the pIC50 against KAT-5 is greater than 5.00; at KAT-6A, greater than 5.00; against KAT-8, 4.30 to 5.00; against KAT-7, greater than 5.00.

As to `Cn1cnc(-c2cc(Cl)c(F)c(C(=O)NNS(=O)(=O)CC3CCCC(NC(=O)c4ccccc4)C3)c2)c1` (stereo not drawn) [Compound I-230], the pIC50 against KAT-5 was greater than 5.00; against KAT-6A, greater than 5.00; against KAT-8 it was 4.30 to 5.00; against KAT-7, greater than 5.00.

For `Cn1cnc(-c2cc(Cl)c(F)c(C(=O)NNS(=O)(=O)CC3CCCC(NC(=O)Cc4ccccc4)C3)c2)c1` (stereo not drawn) [Compound I-231], the pIC50 against KAT-5 was greater than 5.00; on KAT-6A, greater than 5.00; against KAT-8, 4.30 to 5.00; on KAT-7, greater than 5.00.

As to `Cn1cnc(-c2cc(Cl)c(F)c(C(=O)NNC3CCS(=O)(=O)C3)c2)c1` (stereo not drawn) [Compound I-232], the negative logarithm of the IC50 (pIC50) against KAT-5, against KAT-6A, against KAT-8 and at KAT-7 was 4.30 to 5.00 in each case.

As for `COCCn1nc(-c2cc(Cl)c(F)c(C(=O)NNS(=O)(=O)CC3CCCCC3)c2)cc1C` [Compound I-233], the pIC50 is 4.30 to 5.00 on KAT-5, 4.30 to 5.00 against KAT-6A, 4.30 to 5.00 on KAT-8 and greater than 5.00 at KAT-7.

Turning to `Cn1cnc(-c2cc(Cl)c(F)c(C(=O)NNS(=O)(=O)CC3CCCC(NC(=O)c4ccccn4)C3)c2)c1` (stereo not drawn) [Compound I-234], the negative logarithm of the IC50 (pIC50) on KAT-5 was greater than 5.00; on KAT-6A, greater than 5.00; against KAT-8 it was 4.30 to 5.00; at KAT-7, greater than 5.00.

Turning to `Cn1cnc(-c2cc(Cl)c(F)c(C(=O)NNS(=O)(=O)C[C@H]3C[C@@H](NC(N)=O)C3)c2)c1` [Compound I-235], the negative logarithm of the IC50 (pIC50) against KAT-5 was greater than 5.00; against KAT-6A it was greater than 5.00; on KAT-8, 4.30 to 5.00; on KAT-7, greater than 5.00.

For the compound `Cn1cnc(-c2cc(Cl)c(F)c(C(=O)NNS(=O)(=O)CC3CCCC(NC(=O)c4cccnc4)C3)c2)c1` (stereo not drawn) [Compound I-236], the pIC50 against KAT-5 is greater than 5.00; against KAT-6A, greater than 5.00; against KAT-8 it was 4.30 to 5.00; against KAT-7, greater than 5.00.

As to `Cn1cnc(-c2cc(Cl)c(F)c(C(=O)NNS(=O)(=O)c3cn(C)cn3)c2)c1` [Compound I-237], the negative-log IC50 (pIC50) is 4.30 to 5.00 at KAT-5, greater than 5.00 against KAT-6A, 4.30 to 5.00 at KAT-8 and greater than 5.00 against KAT-7.

Regarding `Cn1cnc(-c2cc(Cl)c(F)c(C(=O)NNS(=O)(=O)CC3CCCC(NC(=O)c4ccncc4)C3)c2)c1` (stereo not drawn) [Compound I-238], the negative logarithm of the IC50 (pIC50) against KAT-5 is greater than 5.00; on KAT-6A, greater than 5.00; against KAT-8, 4.30 to 5.00; against KAT-7, greater than 5.00.

Consider `Cn1cnc(-c2cc(Cl)c(F)c(C(=O)NNS(=O)(=O)CC3(C)CCOCC3)c2)c1` [Compound I-239], for which the pIC50 on KAT-5 was greater than 5.00; against KAT-6A it was 4.30 to 5.00; against KAT-8 it was 4.30 to 5.00; on KAT-7 it was greater than 5.00.

As for `Cn1cnc(-c2cc(Cl)c(F)c(C(=O)NNS(=O)(=O)C[C@H]3CC[C@H](NC(=O)c4ccccc4)CC3)c2)c1` [Compound I-240], the negative-log IC50 (pIC50) on KAT-5 is greater than 5.00; on KAT-6A it was greater than 5.00; on KAT-8 it was 4.30 to 5.00; on KAT-7, greater than 5.00.

Consider `Cn1cnc(-c2cc(Cl)c(F)c(C(=O)NNS(=O)(=O)C[C@H]3CC[C@H](NC(=O)c4cccnc4)CC3)c2)c1` [Compound I-241], for which the pIC50 against KAT-5 is greater than 5.00; against KAT-6A, greater than 5.00; against KAT-8 it was 4.30 to 5.00; on KAT-7, greater than 5.00.

Regarding `Cn1cnc(-c2cc(Cl)c(F)c(C(=O)NNS(=O)(=O)CC3CC4CCC(C3)O4)c2)c1` (stereo not drawn) [Compound I-242], the pIC50 was greater than 5.00 against KAT-5, greater than 5.00 at KAT-6A, 4.30 to 5.00 against KAT-8 and greater than 5.00 against KAT-7.

As for `Cn1cnc(-c2cc(Cl)c(F)c(C(=O)NNS(=O)(=O)CC3CCCC(NC(=O)Cc4cccnc4)C3)c2)c1` (stereo not drawn) [Compound I-243], the pIC50 was greater than 5.00 against KAT-5, greater than 5.00 at KAT-6A, 4.30 to 5.00 against KAT-8 and greater than 5.00 at KAT-7.

Take `Cn1cnc(-c2cc(Cl)c(F)c(C(=O)NNS(=O)(=O)CCC3CCOCC3)c2)c1` [Compound I-244]: the pIC50 against KAT-5 is greater than 5.00; against KAT-6A, greater than 5.00; on KAT-8, 4.30 to 5.00; against KAT-7, greater than 5.00.

For `Cn1cnc(-c2cc(Cl)c(F)c(C(=O)NNS(=O)(=O)C[C@H]3CC[C@H](NC(=O)c4ccccn4)CC3)c2)c1` [Compound I-245], the pIC50 on KAT-5 was greater than 5.00; against KAT-6A, greater than 5.00; against KAT-8, 4.30 to 5.00; against KAT-7, greater than 5.00.

For the compound `Cn1cnc(-c2cc(Cl)c(F)c(C(=O)NNS(=O)(=O)C[C@H]3CC[C@@H](NC(=O)C4CCC4)CC3)c2)c1` [Compound I-246], the negative-log IC50 (pIC50) against KAT-5 is greater than 5.00; against KAT-6A, greater than 5.00; on KAT-8, 4.30 to 5.00; at KAT-7 it was greater than 5.00.

For `Cn1cnc(-c2cc(Cl)c(F)c(C(=O)NNS(=O)(=O)CC3CCCC(NC(=O)Cc4ccncc4)C3)c2)c1` (stereo not drawn) [Compound I-247], the pIC50 on KAT-5 is greater than 5.00; against KAT-6A, greater than 5.00; on KAT-8 it was 4.30 to 5.00; against KAT-7, greater than 5.00.

Source of the values: patent US11685732B2, “MYST family histone acetyltransferase inhibitors” (Epizyme, Inc., priority 2017, dated 2023).
